Consider three molecules from patent US4906659A, “Antibiotic tan-749, its derivatives, production and use thereof” (Takeda Chemical Industries, Ltd., priority 1985, dated 1990).

In brackets after ≈: the same amount, converted by molar mass.

The first data set has as its system Pseudomonas aeruginosa P9. In words: Antibacterial spectrum, minimal inhibitory concentration, agar dilution (Table E). It counts as cell-based. Particulars: dihydrochloride, medium B--TSA (10% horse serum/TSA), inoculum a loopful of 10^8 CFU/ml. The text has this: (§1) Tables D and E show the antibacterial spectra of TAN-749A, B, C and D (dihydrochlorides) against various microorganisms.
(§2) (Note 1) Determined by the agar dilution method. Inoculum size was a
(§3) loopful of 10^8 CFU/ml.
(§4) (Note 2) TSA (Tripticase Soy Agar; Baltimore Biological Laboratories,
(§5) USA), B--TSA; 10% horse serum/TSA
Turning to `C/C=C\C=C\C(=O)NCC(O)CC(N)CC(=O)NCCC(=N)N` (stereo not shown) [I], it took 100 µg/mL (≈ 307 µM) to inhibit growth (MIC).

A further data set concerns Streptococcus pyogenes E-14. The data set is described as above. The data set is classed as cell-based. The conditions noted are these: E14, dihydrochloride, medium B--TSA (10% horse serum/TSA), inoculum a loopful of 10^8 CFU/ml.
Excerpt: as §1, §2, §3, §4, §5
The molecule `C/C=C\C=C\C(=O)NCC(O)CC(N)CC(=O)NCCC(=N)N` (stereo not shown) [I] came in with an MIC of 3.13 µg/mL (≈ 9.62 µM).

The next data set deals with Escherichia coli T7. The description is as above. The data set is classed as cell-based. The conditions noted are these: dihydrochloride, medium TSA, inoculum a loopful of 10^8 CFU/ml.
Excerpt: as §1, §2, §3, §4, §5
The molecule `C/C=C\C=C\C(=O)NCC(O)CC(N)CC(=O)NCCC(=N)N` (stereo not shown) [I] displayed an MIC of 50 µg/mL (≈ 154 µM).

The subject of another data set is Staphylococcus aureus 308A-1. Described as above. Particulars: 308A1, dihydrochloride, medium TSA, inoculum a loopful of 10^8 CFU/ml. It counts as cell-based.
Excerpt: as §1, §2, §3, §4, §5
In turn, `C/C=C\C=C\C(=O)NCC(O)CC(N)CC(=O)NCCC(=N)N` (stereo not shown) [I] displayed an MIC of 12.5 µg/mL (≈ 38.4 µM).

Another data set relates to Staphylococcus aureus FDA209P. The data set is described as above. The data set is classed as cell-based. The conditions noted are these: dihydrochloride, medium B--TSA (10% horse serum/TSA), inoculum a loopful of 10^8 CFU/ml.
Excerpt: as §1, §2, §3, §4, §5
In the case of `C/C=C\C=C\C(=O)NCC(O)CC(N)CC(=O)NCCC(=N)N` (stereo not shown) [I], the lowest concentration to inhibit growth (MIC) was 12.5 µg/mL (≈ 38.4 µM).

For the next data set, the system named is Staphylococcus aureus FDA 209P. In words: Antibacterial spectrum, minimal inhibitory concentration (Table D). The data set is classed as cell-based. The conditions noted are these: FDA209P, dihydrochloride, Bacto-Antibiotic Medium 3 agar, inoculum a loopful of approx. 10^6 CFU/ml. How it is done: as §1
(§6) Bacto-Antibiotic Medium 3
(§7) Distilled water 1,000 ml
(§8) Inoculum size a loopful of approx.
As to `C/C=C\C=C\C(=O)NCC(O)CC(N)CC(=O)NCCC(=N)N` (stereo not shown) [I], the minimum inhibitory concentration (MIC) was determined as 50 µg/mL (≈ 154 µM).

The subject of a further data set is Acinetobacter calcoaceticus IFO 13006. The description is as above. It counts as cell-based. Particulars: IFO13006, dihydrochloride, Bacto-Antibiotic Medium 3 agar, inoculum a loopful of approx. 10^6 CFU/ml. The procedure: as §1, §6, §7, §8
Consider `C/C=C\C=C\C(=O)NCC(O)CC(N)CC(=O)NCCC(=N)N` (stereo not shown) [I], for which the MIC is 25 µg/mL (≈ 76.8 µM).

For another data set, the system named is Citrobacter freundii IFO 12681. Described as above. The data set is classed as cell-based. The conditions noted are these: IFO12681, dihydrochloride, Bacto-Antibiotic Medium 3 agar, inoculum a loopful of approx. 10^6 CFU/ml. How it is done:
as §1, §6, §7, §8
In turn, `C/C=C\C=C\C(=O)NCC(O)CC(N)CC(=O)NCCC(=N)N` (stereo not shown) [I] registered an MIC of no less than 100 µg/mL.

Another data set concerns Klebsiella pneumoniae IFO 3317. Described as above. The data set is classed as cell-based. Particulars: IFO3317, dihydrochloride, Bacto-Antibiotic Medium 3 agar, inoculum a loopful of approx. 10^6 CFU/ml. How it is done: as §1, §6, §7, §8
`C/C=C\C=C\C(=O)NCC(O)CC(N)CC(=O)NCCC(=N)N` (stereo not shown) [I] showed an MIC greater than 100 µg/mL.

The next data set relates to Escherichia coli NIHJ JC2. The description is as above. Particulars: NIHJJC2, dihydrochloride, Bacto-Antibiotic Medium 3 agar, inoculum a loopful of approx. 10^6 CFU/ml. It counts as cell-based. How it is done:
as §1, §6, §7, §8
Consider `C/C=C\C=C\C(=O)NCC(O)CC(N)CC(=O)NCCC(=N)N` (stereo not shown) [I], for which the MIC was greater than 100 µg/mL.

The subject of the next data set is Alcaligenes faecalis IFO 13111. The description is as above. The data set is classed as cell-based. Particulars: IFO13111, dihydrochloride, Bacto-Antibiotic Medium 3 agar, inoculum a loopful of approx. 10^6 CFU/ml. How it is done:
as §1, §6, §7, §8
In turn, `C/C=C\C=C\C(=O)NCC(O)CC(N)CC(=O)NCCC(=N)N` (stereo not shown) [I] registered an MIC of 3.13 µg/mL (≈ 9.62 µM).

Another data set relates to Proteus morganii IFO 3168. The description is as above. It counts as cell-based. Particulars: Morganella morganii, IFO3168; dihydrochloride; Bacto-Antibiotic Medium 3 agar; inoculum a loopful of approx. 10^6 CFU/ml. The procedure: as §1, §6, §7, §8
Take `C/C=C\C=C\C(=O)NCC(O)CC(N)CC(=O)NCCC(=N)N` (stereo not shown) [I]: the MIC is greater than 100 µg/mL.

A further data set deals with Proteus vulgaris IFO 3988. The description is as above. The data set is classed as cell-based. Particulars: IFO3988, dihydrochloride, Bacto-Antibiotic Medium 3 agar, inoculum a loopful of approx. 10^6 CFU/ml. How it is done:
as §1, §6, §7, §8
In turn, `C/C=C\C=C\C(=O)NCC(O)CC(N)CC(=O)NCCC(=N)N` (stereo not shown) [I] gave an MIC of 100 µg/mL (≈ 307 µM).

The subject of the next data set is S. aureus 308A-1. In words: Antibacterial activity against gram-positive bacteria, MIC (Table 3). The data set is classed as cell-based. The conditions noted are these: Staphylococcus aureus, 308A1; Tripticase Soy Agar; inoculum size 10^8 cfu/ml. The source says:
The antibacterial activities against gram-positive bacteria (S. aureus 308A-1) of some compounds of the invention are as shown in Table 3.
*Medium: Tripticase Soy Agar Inoculum size: 10^8 cfu/ml
As for `CC=CC=C(C)C(=O)NCC(O)CC(N)CC(=O)NCCC(=N)N` (stereo not shown) [44b], the MIC stood at 100 µg/mL (≈ 295 µM).

On to `C/C=C\C=C(/C)C(=O)NC[C@H](O)C[C@@H](N)CC(=O)NCCC(=N)N` [101b], for which the minimal inhibitory concentration (MIC) is greater than 100 µg/mL.

In the next data set the test system is Escherichia coli T7. In words: Therapeutic effect on infectious disease in mice (Table G). It counts as in vivo. The conditions noted are these: T7, sc, dihydrochloride, bacteria infected intraperitoneally, subcutaneous administration.
Molecule `C/C=C\C=C\C(=O)NCC(O)CC(N)CC(=O)NCCC(=N)N` (stereo not shown) [I] returned a median effective dose (ED50) of 50.8 mg/kg.

System in the next data set: not listed separately
Description: Preliminary acute toxicities in mice (Table H). Particulars: mouse, in vivo, dihydrochloride, oral.
The molecule `C/C=C\C=C\C(=O)NCC(O)CC(N)CC(=O)NCCC(=N)N` (stereo not shown) [I] came in with an LD50 of 2000 to 4000 mg/kg.

Staying with this data set, now noted: mouse, in vivo, sc, dihydrochloride, subcutaneous.
`C/C=C\C=C\C(=O)NCC(O)CC(N)CC(=O)NCCC(=N)N` (stereo not shown) [I] registered an LD50 of roughly 500 mg/kg.

The next data set concerns S. aureus 308A-1. In words: Antibacterial activity in mice, ED50 (Table 3). The conditions noted are these: Staphylococcus aureus, 308A1, sc, S.C. It counts as in vivo. The text has this:
The antibacterial activities against gram-positive bacteria (S. aureus […]-1) of some compounds of the invention are as shown in Table 3. | **mice, S.C.,
With `CC=CC=C(C)C(=O)NCC(O)CC(N)CC(=O)NCCC(=N)N` (stereo not shown) [44b], the 50% effect level (ED50) was put at a dose of 21.5 mg/kg.

Molecule `C/C=C\C=C(/C)C(=O)NC[C@H](O)C[C@@H](N)CC(=O)NCCC(=N)N` [101b] yielded an ED50 of 7.02 mg/kg. This ED50 is about 3.1-fold lower than that of the molecule before.

For another data set, the system named is Staphylococcus aureus 308A-1. Description: Therapeutic effect on infectious disease in mice (Table G). The data set is classed as in vivo. Particulars: 308A1, sc, dihydrochloride, bacteria infected intraperitoneally, subcutaneous administration.
The molecule `C/C=C\C=C\C(=O)NCC(O)CC(N)CC(=O)NCCC(=N)N` (stereo not shown) [I] had an ED50 of 1.31 mg/kg.

The next data set relates to Escherichia coli 0-111. The description is as above. It counts as in vivo. The conditions noted are these: Escherichia coli, 0111, sc, dihydrochloride, bacteria infected intraperitoneally, subcutaneous administration.
`C/C=C\C=C\C(=O)NCC(O)CC(N)CC(=O)NCCC(=N)N` (stereo not shown) [I] yielded a median effective dose (ED50) of 67.2 mg/kg.
